From ChEMBL document CHEMBL5055655, “Design, synthesis and bioactivity evaluation of fisetin derivatives as potential anti-inflammatory agents against LPS-induced acute lung injury” (Bioorg Med Chem, 2021)
pIC50: −log10 of the molar value. Blank lines part the entries; values can stand above or below the compound they belong to. The source made the active and inactive calls. The rule behind the calls is not given here.

Experiments:
J774.A1 [1] = assay: Antiinflammatory activity in mouse J774.A1 cells assessed as inhibition of LPS-induced IL6 secretion at 10 uM incubated for 2 followed by LPS stimulation and measured after 22 hrs by ELISA relative to control; type: functional; settings: for Activity: time 24.0 hrs
J774.A1 [2] = assay: Cytotoxicity against mouse J774A.1 cells assessed as reduction in cell viability at 10 uM after 24 hrs by MTT assay; type: cell-based; settings: j774.a1, 24 h
J774.A1 [3] = assay: Antiinflammatory activity in mouse J774.A1 cells assessed as inhibition of LPS-induced TNF-alpha secretion at 10 uM incubated for 2 followed by LPS stimulation and measured after 22 hrs by ELISA relative to control; type: functional; settings: for Activity: time 24.0 hrs
Mus musculus [4] = assay: Antiinflammatory activity against C57BL/6 mouse model of LPS-induced acute lung injury assessed as reduction in interstitial edema in lung tissue at 20 mg/kg, IG treated 0.5 hrs before LPS challenge by H and E staining based histopathological analysis; type: functional, organism-based
Mus musculus [5] = assay: Antiinflammatory activity against C57BL/6 mouse model of LPS-induced acute lung injury assessed as reduction in pulmonary congestion at 20 mg/kg, IG treated 0.5 hrs before LPS challenge by H and E staining based histopathological analysis; type: functional, organism-based
Mus musculus [6] = assay: Anti-inflammatory activity against C57BL/6 mouse model of LPS-induced acute lung injury assessed as reduction in cell count in broncho alveolar lavage fluid at 20 mg/kg, IG treated 0.5 hrs before LPS stimulation by ELISA; type: functional, organism-based
Mus musculus [7] = assay: Antiinflammatory activity against C57BL/6 mouse model of LPS-induced acute lung injury assessed as reduction in alveolar septa thickening at 20 mg/kg, IG treated 0.5 hrs before LPS challenge by H and E staining based histopathological analysis; type: functional, organism-based
Mus musculus [8] = assay: Antiinflammatory activity against C57BL/6 mouse model of LPS-induced acute lung injury assessed as reduction in inflammatory infiltration at 20 mg/kg, IG treated 0.5 hrs before LPS challenge by H and E staining based histopathological analysis; type: functional, organism-based
Mus musculus [9] = assay: Anti-inflammatory activity against C57BL/6 mouse model of LPS-induced acute lung injury assessed as reduction in IL6 secretion in broncho alveolar lavage fluid at 20 mg/kg, IG treated 0.5 hrs before LPS stimulation by ELISA; type: functional, organism-based
Mus musculus [10] = assay: Antiinflammatory activity in C57BL/6 mouse model of LPS-induced acute lung injury assessed as reduction in lung wet/dry ratio at 20 mg/kg, IG administered 30 mins prior to LPS instillation; type: functional, organism-based
J774.A1 [11] = assay: Antiinflammatory activity in mouse J774.A1 cells assessed as inhibition of LPS-induced TNF-alpha secretion incubated for 2 followed by LPS stimulation and measured after 22 hrs by ELISA; type: functional, cell-based
Mus musculus [12] = assay: Anti-inflammatory activity against C57BL/6 mouse model of LPS-induced acute lung injury assessed as reduction in TNF-alpha secretion in broncho alveolar lavage fluid at 20 mg/kg, IG treated 0.5 hrs before LPS stimulation by ELISA; type: functional, organism-based
J774.A1 [13] = assay: Antiinflammatory activity in mouse J774.A1 cells assessed as inhibition of LPS-induced IL6 secretion incubated for 2 followed by LPS stimulation and measured after 22 hrs by ELISA; type: functional, cell-based
Mus musculus [14] = assay: Antiinflammatory activity against C57BL/6 mouse model of LPS-induced acute lung injury assessed as reduction in lung tissue destruction at 20 mg/kg, IG treated 0.5 hrs before LPS challenge by H and E staining based histopathological analysis; type: functional, organism-based

SMILES: COc1ccc(C(=O)/C=C/c2ccc(O)c(O)c2)c(O)c1 [CALYTHROPSIN]
Activity (J774.A1 [1]): Active | Activity (J774.A1 [2]): Non-Toxic | Activity (J774.A1 [3]): Active

SMILES: CN1CCN(CCCOc2ccc(O)c(C(=O)/C=C/c3ccc(O)c(O)c3)c2)CC1
Activity (J774.A1 [1]): Active | Activity (J774.A1 [2]): Non-Toxic | Activity (J774.A1 [3]): Active

SMILES: COc1cc(O)c(C(=O)/C=C/c2ccc(O)c(O)c2)cc1OC
Activity (J774.A1 [1]): Active | Activity (J774.A1 [2]): Non-Toxic | Activity (J774.A1 [3]): Active

SMILES: O=c1c(O)c(-c2ccc(O)c(O)c2)oc2cc(F)ccc12
Activity (J774.A1 [1]): Active | Activity (J774.A1 [2]): Non-Toxic | Activity (J774.A1 [3]): Active

SMILES: O=C(/C=C/c1ccc(O)c(O)c1)c1ccc(OCCCN2CCCC2)cc1O
Activity (J774.A1 [1]): Active | Activity (J774.A1 [2]): Non-Toxic | Activity (J774.A1 [3]): Active

SMILES: O=C(/C=C/c1ccc(O)c(O)c1)c1ccc(OCCCN2CCOCC2)cc1O
Activity (J774.A1 [1]): Active | Activity (J774.A1 [2]): Non-Toxic | Activity (J774.A1 [3]): Active

SMILES: O=C(/C=C/c1ccc(O)c(O)c1)c1ccc(OCCN2CCCC2)cc1O
Activity (J774.A1 [1]): Active | Activity (J774.A1 [2]): Non-Toxic | Activity (J774.A1 [3]): Active

SMILES: O=c1c(O)c(-c2ccc(O)c(O)c2)oc2cc(Br)ccc12
Activity (J774.A1 [1]): Active | Activity (J774.A1 [2]): Non-Toxic | Activity (J774.A1 [3]): Active

SMILES: O=c1c(O)c(-c2ccc(O)c(O)c2)oc2ccc(Br)cc12
Activity (J774.A1 [1]): Active | Activity (J774.A1 [2]): Non-Toxic | Activity (J774.A1 [3]): Active

SMILES: O=C(/C=C/c1ccc(O)c(O)c1)c1ccc(F)cc1O
Activity (J774.A1 [1]): Active | Activity (J774.A1 [2]): Non-Toxic | Activity (J774.A1 [3]): Active

SMILES: O=C(/C=C/c1ccc(O)c(O)c1)c1cc(OCCCN2CCOCC2)ccc1O
Activity (J774.A1 [1]): Active | Activity (J774.A1 [2]): Non-Toxic | Activity (J774.A1 [3]): Active

SMILES: O=C(/C=C/c1ccc(O)c(O)c1)c1ccc(OCCN2CCOCC2)cc1O
Activity (J774.A1 [1]): Active | Activity (J774.A1 [2]): Non-Toxic | Activity (J774.A1 [3]): Active

SMILES: O=C(/C=C/c1ccc(O)c(O)c1)c1cc(OCCN2CCOCC2)ccc1O
Activity (J774.A1 [1]): Active | Activity (J774.A1 [2]): Non-Toxic | Activity (J774.A1 [3]): Active

SMILES: O=C(/C=C/c1ccc(O)c(O)c1)c1ccc([N+](=O)[O-])cc1O
Activity (J774.A1 [1]): Active | Activity (J774.A1 [2]): Non-Toxic | Activity (J774.A1 [3]): Active

SMILES: O=C(/C=C/c1ccc(O)c(O)c1)c1cc(OCCCN2CCCC2)ccc1O
Activity (J774.A1 [1]): Active | Activity (J774.A1 [2]): Non-Toxic | Activity (J774.A1 [3]): Active

SMILES: O=C(/C=C/c1ccc(O)c(O)c1)c1cc(OCCCN2CCCCC2)ccc1O
Activity (J774.A1 [1]): Active | Activity (J774.A1 [2]): Non-Toxic | Activity (J774.A1 [3]): Active

pIC50 (J774.A1 [11]; J774.A1, 22 h): 5.59 | pIC50 (J774.A1 [13]; J774.A1, 22 h): 5.08
SMILES: CN(C)CCCOc1ccc(C(=O)/C=C/c2ccc(O)c(O)c2)c(O)c1
inhibition at 10 µM (J774.A1 [1]; time 24 hrs): 89.6% | Activity (Mus musculus [4]): Active | Activity (J774.A1 [2]): Non-Toxic | Activity (Mus musculus [5]): Active | Activity (Mus musculus [6]): Active | Activity (Mus musculus [7]): Active | Activity (Mus musculus [8]): Active | Activity (Mus musculus [9]): Active | Activity (Mus musculus [10]): Active | inhibition (J774.A1 [11]; time 24.0 hrs): Dose-dependent effect | inhibition at 10 µM (J774.A1 [3]; time 24 hrs): 76.4% | Activity (Mus musculus [12]): Active | inhibition (J774.A1 [13]; time 24.0 hrs): Dose-dependent effect | Activity (Mus musculus [14]): Active

SMILES: O=c1c(O)c(-c2ccc(O)c(O)c2)oc2cc(O)ccc12 [FISETIN]
Activity (J774.A1 [1]): Active | Activity (J774.A1 [2]): Non-Toxic | Activity (Mus musculus [6]): Active | Activity (J774.A1 [3]): Active

SMILES: O=C(/C=C/c1ccc(O)c(O)c1)c1ccc(Br)cc1O
Activity (J774.A1 [1]): Active | Activity (J774.A1 [2]): Non-Toxic | Activity (J774.A1 [3]): Active

SMILES: COc1ccc2c(=O)c(O)c(-c3ccc(O)c(O)c3)oc2c1
Activity (J774.A1 [1]): Active | Activity (J774.A1 [2]): Non-Toxic | Activity (J774.A1 [3]): Active

SMILES: O=C(/C=C/c1ccc(O)c(O)c1)c1cc(OCCN2CCCC2)ccc1O
Activity (J774.A1 [1]): Active | Activity (J774.A1 [2]): Non-Toxic | Activity (J774.A1 [3]): Active

SMILES: O=C(/C=C/c1ccc(O)c(O)c1)c1ccc(OCCCN2CCCCC2)cc1O
Activity (J774.A1 [1]): Active | Activity (J774.A1 [2]): Non-Toxic | Activity (J774.A1 [3]): Active

SMILES: CN(C)CCCOc1ccc(O)c(C(=O)/C=C/c2ccc(O)c(O)c2)c1
Activity (J774.A1 [1]): Active | Activity (J774.A1 [2]): Non-Toxic | Activity (J774.A1 [3]): Active

SMILES: O=C(/C=C/c1ccc(O)c(O)c1)c1cc(F)ccc1O
Activity (J774.A1 [1]): Active | Activity (J774.A1 [2]): Non-Toxic | Activity (J774.A1 [3]): Active

SMILES: O=C(/C=C/c1ccc(O)c(O)c1)c1cc(Br)ccc1O
Activity (J774.A1 [1]): Active | Activity (J774.A1 [2]): Non-Toxic | Activity (J774.A1 [3]): Active

SMILES: O=c1c(O)c(-c2ccc(O)c(O)c2)oc2ccc(F)cc12
Activity (J774.A1 [1]): Active | Activity (J774.A1 [2]): Non-Toxic | Activity (J774.A1 [3]): Active
